Here are results for 58 compounds from ChEMBL document CHEMBL1201862, “PubChem BioAssay data set” (2004).

Data set [1] in a line: inhibitors of intracellular T. cruzi replication, confirmation, NIH3T3 host cells, beta-gal luminescence (AID 2044).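 Also: intracellular parasites grown in NIH/3T3 mouse fibroblasts as host cells; luminescent beta-galactosidase reporter signal from transgenic T. cruzi replicating inside host cells; inhibitors lower the luminescence signal.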 The format is functional, cell-based.
Data set [2] can be described thus: cytotoxicity toward NIH3T3 fibroblasts, dose response, counter-screen, cell-based, ATP luminescence, mouse fibroblasts (AID 2010).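 Also: cells exposed to compound for about 90 hours before reading.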 The format is functional.
Data set [3] in a line: inhibitors of firefly luciferase expression or activity, dose response, H4 neuroglioma cells, luminescence (AID 1990). The format is functional, cell-based.
Data set [4] can be described thus: Luminescence Cell-Based Dose Response HTS to Identify Inhibitors of 5'UTR Stem-Loop Driven Prion Protein mRNA Translation in H4 Neuroglioblastoma Cells. [Related pubchem assays: 1827 (Project Summary), 1813 (Primary HTS)]. The format is functional.
The nature of data set [5]: inhibitors of SNCA 5'UTR-driven reporter translation, confirmation, H4 neuroglioma cells, luminescence (AID 1988). The format is functional, cell-based.
The target of the next data set is Cytochrome P450 2D6 (Homo sapiens, UniProt P10635).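 Also: CYP2D6 member of a cytochrome P450 panel assay.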
For a further data set, the system named is INS1. The experiment in a line: beta cell apoptosis inhibitors, cytokine rescue, dose response, luminescence, retest (AID 449756).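 Also: cell death triggered by IL-1 beta plus TNF-alpha plus IFN-gamma mixture; protective hits raise ATP signal compared with cytokine alone wells.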 The format is functional, cell-based. The note with it: Rattus norvegicus.
The next data set deals with Cytochrome P450 2C19 (Homo sapiens, UniProt P33261). The experiment in a line: Cytochrome panel assay with activity outcomes. Panel member name: p450-cyp2c19 Compounds with AC50 equal or less than 10 uM are considered active. The format is functional.
The next data set concerns the target Cytochrome P450 2C9 (Homo sapiens, UniProt P11712).

The source made the active and inactive calls.

Chain of Cytochrome P450 2C9 (P11712 whole entry): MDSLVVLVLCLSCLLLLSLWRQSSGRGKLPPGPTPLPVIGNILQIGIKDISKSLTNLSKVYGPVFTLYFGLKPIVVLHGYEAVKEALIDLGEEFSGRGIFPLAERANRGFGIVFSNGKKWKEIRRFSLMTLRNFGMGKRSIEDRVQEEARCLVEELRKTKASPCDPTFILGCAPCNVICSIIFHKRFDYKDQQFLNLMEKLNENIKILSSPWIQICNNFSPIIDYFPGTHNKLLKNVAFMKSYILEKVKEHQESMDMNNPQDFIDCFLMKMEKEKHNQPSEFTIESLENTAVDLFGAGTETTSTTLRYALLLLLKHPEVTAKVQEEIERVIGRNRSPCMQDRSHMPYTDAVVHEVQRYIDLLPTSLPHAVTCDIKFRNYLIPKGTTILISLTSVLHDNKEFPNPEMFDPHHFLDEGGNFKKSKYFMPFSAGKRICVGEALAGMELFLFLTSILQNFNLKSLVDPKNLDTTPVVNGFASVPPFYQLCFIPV
Chain of Cytochrome P450 2C19 (P33261 whole entry): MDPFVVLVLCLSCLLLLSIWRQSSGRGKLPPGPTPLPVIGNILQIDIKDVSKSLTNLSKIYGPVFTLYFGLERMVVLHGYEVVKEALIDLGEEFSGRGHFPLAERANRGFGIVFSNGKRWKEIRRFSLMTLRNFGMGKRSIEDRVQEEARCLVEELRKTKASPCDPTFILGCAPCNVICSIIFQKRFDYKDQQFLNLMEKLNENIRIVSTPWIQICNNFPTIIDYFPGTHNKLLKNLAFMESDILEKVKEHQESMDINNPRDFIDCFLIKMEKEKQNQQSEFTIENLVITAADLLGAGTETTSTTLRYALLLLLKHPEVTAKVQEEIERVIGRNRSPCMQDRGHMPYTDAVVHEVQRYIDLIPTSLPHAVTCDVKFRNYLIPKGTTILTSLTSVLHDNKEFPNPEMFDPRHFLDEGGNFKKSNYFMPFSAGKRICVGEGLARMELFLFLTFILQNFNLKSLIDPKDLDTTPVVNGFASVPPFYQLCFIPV
Chain of Cytochrome P450 2D6 (P10635 whole entry): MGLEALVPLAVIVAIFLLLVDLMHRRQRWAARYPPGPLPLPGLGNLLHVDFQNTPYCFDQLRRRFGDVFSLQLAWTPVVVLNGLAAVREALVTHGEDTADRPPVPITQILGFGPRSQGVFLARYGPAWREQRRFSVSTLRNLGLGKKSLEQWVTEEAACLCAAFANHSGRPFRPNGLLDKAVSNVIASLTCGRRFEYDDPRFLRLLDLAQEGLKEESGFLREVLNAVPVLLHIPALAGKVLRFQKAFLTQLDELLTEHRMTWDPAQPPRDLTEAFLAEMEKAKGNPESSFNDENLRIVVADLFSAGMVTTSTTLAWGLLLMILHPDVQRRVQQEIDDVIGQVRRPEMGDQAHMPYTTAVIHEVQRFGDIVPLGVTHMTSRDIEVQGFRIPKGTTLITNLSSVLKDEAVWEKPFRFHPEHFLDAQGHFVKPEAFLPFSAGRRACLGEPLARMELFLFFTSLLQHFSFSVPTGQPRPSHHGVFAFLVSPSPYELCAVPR

Turning to `CN1c2ccc([N+](=O)[O-])cc2N(C)C1(C)c1ccccc1` (stereo not given), the EC50 in data set [1] is 2.85 µM (active); in data set [2], > 60 µM (not active).
On to `Cc1cccc(C(=O)N[C@H](C(=O)Nc2nc3ccc(S(C)(=O)=O)cc3s2)C(C)C)c1`, for which the EC50 in data set [3], in [4] and in data set [5] was > 120 µM (not active) throughout.
On to `COc1cccc(Nc2ncc3nc(-c4cccs4)c(=O)n(C[C@H]4CCCO4)c3n2)c1`, for which, on Cytochrome P450 2D6, the AC50 is 15.8 µM (inconclusive).
As to `CC(=O)NC(C)c1cc(Cl)c2cccnc2c1O` (stereo not given), the AC50 with INS1 is 4.08 µM (active).
Regarding `O=C(Nc1ccc([N+](=O)[O-])cn1)c1cc(-c2cccc(Cl)c2)nc2ccccc12`, the concentration for a half-maximal effect (EC50) in [1] was 0.809 µM (active); in [2] it was > 30 µM (not active).
As for `CCc1c2c(nc3ccc(OC)cc13)COC2`, the AC50 at Cytochrome P450 2C19 (read-out: AC50) and on Cytochrome P450 2D6 was 20 µM (inconclusive) each time.
Take `COc1ccc(-c2ccc([C@H]3[C@@H]4C=CCC[C@@]4(C)C(=O)N3Cc3ccccc3)c(F)c2)cc1`: the AC50 with INS1 is 13.2 µM (active).
In the case of `COc1cccc(-n2c(CN3CCN(c4cccc(C)c4)C(C)C3)nc3ccc([N+](=O)[O-])cc3c2=O)c1` (stereo not given), the EC50 in data set [1] is 1.91 µM (active); in data set [2], > 60 µM (not active).
Take `CC1CCN(C(NC(=O)c2ccco2)C(=O)c2ccccc2)CC1` (stereo not given): the AC50 at Cytochrome P450 2D6 is 15.8 µM (inconclusive).
As to `COc1ncc2nc(-c3cccs3)c(=O)n(Cc3ccc(F)cc3)c2n1`, the AC50 at Cytochrome P450 2D6 was 0.398 µM (inconclusive).
Consider `CCCn1c(-c2cccc([N+](=O)[O-])c2)nc2c1c(=O)[nH]c(=O)n2Cc1ccccc1`, for which the EC50 in [3] is 17.5 µM (active); in data set [4], > 120 µM (not active); in [5] it was > 120 µM (not active).
`Clc1ccccc1-c1nccc(NCCN2CCOCC2)n1`: the concentration at half-maximal activity (AC50) on Cytochrome P450 2D6 was 12.6 µM (inconclusive).
For the compound `COc1cc(C(=O)NC(=S)NNC(=O)c2cnccn2)cc(OC)c1OC`, the AC50 in the data set with INS1 is 1.27 µM (active).
As for `COc1ccc2[nH]c(C)c(CCN(Cc3cccs3)C(S)=Nc3ccc(F)cc3)c2c1`, the EC50 in [1] is 4.21 µM (active); in data set [2], > 60 µM (not active).
With `Cc1c(CCO)c(=O)n(C)n1C(=O)c1ccc(F)cc1`, the AC50 at Cytochrome P450 2D6 was 22.4 µM (inconclusive).
As to `O=C(Cn1ncc2c(=O)oc3ccccc3c21)N1CCCc2ccccc21`, the EC50 in [3] was > 120 µM (not active); in [4], 6.05 µM (active); in [5] it was > 120 µM (not active).
With `CCN(CC)CC#CCC(O)(c1ccccc1)C1CCCC1` (stereo not given), the EC50 in [1] was 0.52 µM (active); in data set [2], > 60 µM (not active).
For the compound `N#Cc1cccc(NC(=O)N2CCCC3(CCN(C(=O)c4ccncc4)CC3)C2)c1`, the AC50 at Cytochrome P450 2D6 is 25.1 µM (inconclusive).
`COc1ccc(CNC(=O)C(C)Sc2nc3ccccc3c(=O)n2CCCN2CCOCC2)cc1` (stereo not given): the EC50 was 23.9 µM (active) in data set [3], > 120 µM (not active) in data set [4] and > 120 µM (not active) in [5].
As to `O=C(CON1C(=O)c2ccccc2C1=O)c1ccccc1`, at Cytochrome P450 2C9, the AC50 is 6.31 µM (inconclusive).
As to `c1ccc(CCc2cccnc2)nc1`, the half-maximal activity concentration (AC50) on Cytochrome P450 2D6 was 7.94 µM (inconclusive).
On to `CCN(CC)C(=O)C1CC(=O)N(c2ccc(OC)cc2)C1c1ccc(OC)cc1` (stereo not given), for which the AC50 at Cytochrome P450 2C19 (read-out: AC50) was 39.8 µM (inconclusive).
With `CCN(CC)c1ccc2c(Cl)cc(=O)oc2c1`, on Cytochrome P450 2C9, the AC50 was 31.6 µM (inconclusive).
`O=C(N=Nc1c(O)[nH]c2ccc(Br)cc12)c1cc(-c2cccs2)nc2ccccc12`: the EC50 in data set [3] was > 120 µM (not active); in data set [4], 16.6 µM (active); in [5], 9.7 µM (active); in data set [1] it was 1.41 µM (active); in data set [2], > 60 µM (not active).
Turning to `Cc1ccc(C(=O)Nc2cc3c(oc2=O)CCCC3=O)cc1`, the AC50 on Cytochrome P450 2D6 is 0.01 µM (inconclusive).
`CC(=O)OC[C@@H]1O[C@H](C/C=N\O[C@@H](C)c2cn([C@H]3COC[C@H]3O)nn2)C=C[C@@H]1OC(C)=O`: the half-maximal activity concentration (AC50) result at Cytochrome P450 2C19 is reported as “inconclusive”.
Regarding `Clc1ccccc1-c1nc(N2CCNCC2)c2ccccc2n1`, the AC50 on Cytochrome P450 2D6 was 31.6 µM (inconclusive).
For the compound `CCC/C=C(\CCC)C(NC(=O)Oc1ccc(F)cc1)c1ccc(C(=O)OC)cc1` (stereo not given), at Cytochrome P450 2C9, the AC50 was 39.8 µM (inconclusive).
With `O=c1cc(N2CCCCC2)c(-c2ccccc2)nn1Cc1ccc(F)cc1`, the concentration for a half-maximal effect (EC50) in data set [1] was 2.17 µM (active); in data set [2], 9.08 µM (active).
Consider `COc1ccc(Cc2noc(CN3CCCN(C4Cc5ccccc5C4)CC3)n2)cc1OC`, for which the EC50 in data set [1] is 1.3 µM (active); in data set [2] it was > 60 µM (not active).
For the compound `COc1ccc(OCCSc2nc[nH]n2)cc1`, on Cytochrome P450 2C9, the concentration at half-maximal activity (AC50) is 22.4 µM (inconclusive).
Regarding `COc1ccccc1N1CCN(c2nc(C)nc3c2oc2ccccc23)CC1`, the EC50 in data set [3] is 10.3 µM (active); in data set [4], 0.842 µM (active); in data set [5] it was 0.193 µM (active).
For the compound `CN(Cc1ccco1)c1ncnc2ccc(-c3ccccc3C(F)(F)F)cc12`, the AC50 at Cytochrome P450 2C9 was 1 µM (inconclusive).
With `COC(=O)[C@@]1(Cc2ccc(F)cc2)[C@H]2c3cc(C(=O)N(C)C)n(CCCNc4ccc(C(F)(F)F)cc4Cl)c3C[C@H]2CN1C(=O)c1ccccc1`, the AC50 at Cytochrome P450 2C19 (read-out: AC50) was 25.1 µM (inconclusive).
Take `COc1cccc2c1OC1(C)CC2NC(=O)N1Cc1ccccc1` (stereo not given): the half-maximal effective concentration (EC50) in data set [3] was 21.6 µM (active); in data set [4] it was 7.38 µM (active); in [5], 16.1 µM (active).
For `COc1ccc(CN2CCCC(CO)(Cc3ccc(F)cc3)C2)cc1C` (stereo not given), the EC50 in data set [1] is 0.64 µM (active); in data set [2] it was 9.58 µM (active).
Consider `CS(=O)(=O)NCCSCc1c(Cl)cccc1Cl`, for which the EC50 in data set [1] was 36.9 µM (active); in [2] it was > 60 µM (inconclusive).
The like results for `Cc1ccccc1NC(=O)NCC1CCN(Cc2cccc(Cl)c2)CC1` were, in that order, 1.14 µM (active) and > 30 µM (not active).
With `Fc1cccc(Cl)c1-c1nnc2ccc3ccccc3n12`, in the data set on INS1, the AC50 is 10 µM (active).
In the case of `COc1cccc(CC2(CO)CCCN(Cc3ccc(CN4CCCCC4)s3)C2)c1` (stereo not given), the EC50 is 0.253 µM (active) in data set [1] and 9.85 µM (active) in data set [2].
The like results for `COc1ccc(OC)c(-c2nc(CN3CCCCC3c3cccnc3)c(C)o2)c1` (stereo not given) were, in that order, 2.02 µM (active) and > 60 µM (not active).
`NC(=O)c1[nH]cnc1N`: the EC50 is > 30 µM (not active) in data set [1] and 4.94 µM (active) in data set [2].
In the case of `COc1cc2c3cc1Oc1cc(ccc1O)C[C@@H]1c4c(cc(OC)c(O)c4Oc4ccc(cc4)C[C@H]3[N+](C)(C)CC2)CC[N+]1(C)C`, the AC50 result at Cytochrome P450 2C19 is recorded as “inconclusive”.
For `CCCN(CCC)C(=S)NC(=O)c1ccc(Cl)cc1Cl`, on Cytochrome P450 2D6, the concentration at half-maximal activity (AC50) was 10 µM (inconclusive).
On to `CC(=O)n1cc([C@H]2C=C(C(=O)N3CCN(Cc4ccccc4)CC3)O[C@@H](OCc3ccc(CO)cc3)C2)c2ccccc21`, for which the EC50 in data set [1] is 0.435 µM (active); in data set [2] it was > 30 µM (not active).
For `O=C(CCc1ccc(S(=O)(=O)NC2CCCCC2)cc1)N(Cc1ccccc1)Cc1ccccc1`, the AC50 on Cytochrome P450 2D6 was 12.6 µM (inconclusive).
As to `Cc1c(C(=O)N(Cc2ccccc2)C(C)C)oc2ccc(S(=O)(=O)N3CCOCC3)cc12`, the AC50 in the data set on INS1 was 48 µM (active).
As for `Cc1cccc(N(C)S(=O)(=O)c2ccc3[nH]c(=O)c(=O)[nH]c3c2)c1`, the AC50 on Cytochrome P450 2C19 (read-out: AC50) is 20 µM (inconclusive).
Consider `Cc1noc(/C=C/N(C)C)c1S(=O)(=O)N1CCCC(C(=O)NC2CCCCC2)C1` (stereo not given), for which the concentration giving a half-maximal response (EC50) was 0.484 µM (active) in data set [1] and 6.5 µM (active) in data set [2].
Regarding `Cc1ccc2cc(CN(Cc3ccco3)C(=O)NC3CCCCC3)c(O)nc2c1C`, the concentration giving a half-maximal response (EC50) in data set [3] was 15.9 µM (active); in data set [4], 16.4 µM (active); in [5] it was 13.6 µM (active).
Regarding `Cc1cc(C)c2c(ccc3cccc[n+]32)c1.[O-][Cl+3]([O-])([O-])[O-]`, the AC50 in the data set with INS1 is 4.61 µM (active).
Take `C/C(=N\Nc1nc(-c2ccccn2)nc2ccccc12)c1ccc(F)cc1`: the EC50 in data set [3] is 9.76 µM (active); in [4], 3.74 µM (active); in [5] it was 8.26 µM (active). In addition, the AC50 with INS1 is 41.9 µM (active).
`COc1cc(C(=O)NCC(=O)N/N=C(C)\C=C\c2ccccc2)cc(OC)c1OC`: the EC50 was > 120 µM (not active) in [3], 24.9 µM (active) in data set [4] and > 120 µM (not active) in [5].
For the compound `CCN(CC)c1ccc(/N=C/c2cc(Br)ccc2O)cc1`, the EC50 in data set [1] is 4.39 µM (active); in data set [2], > 60 µM (inconclusive).
For `O=C(N/N=C/c1ccc([N+](=O)[O-])o1)c1ccc2c(c1)OCO2`, the concentration giving a half-maximal response (EC50) in data set [1] was 0.172 µM (active); in data set [2] it was > 30 µM (not active).
In the case of `O=C1CC(c2ccc3c(c2)OCO3)CN1` (stereo not given), at Cytochrome P450 2C19 (read-out: AC50), the half-maximal activity concentration (AC50) is 39.8 µM (inconclusive).
On to `CC(C)c1ccc(Cn2ccc3c4c(N)nc(NC5CC5)nc4ccc32)cc1`, for which the AC50 on Cytochrome P450 2C19 (read-out: AC50) is 31.6 µM (inconclusive).
For `CN(C)CCO[C@@H](c1ccc(Cl)cc1)c1ccccn1` [ROTOXAMINE], the AC50 result was “inconclusive” at Cytochrome P450 2C19 and 12.6 µM (inconclusive) on Cytochrome P450 2D6.
